For 90 molecules, melting point results are on record in a melting point compilation (Tetko et al.; mined from patent text by program, amines drawn as free bases though some values may be those of a salt).

A value given as a limit tells only on which side of the number the result lay.

Broadly, the melting point is the temperature, or range, at which the solid turns liquid.

The molecule `COc1ccc(CC(C(O)CCC(C#N)(c2ccc(OC)c(OC)c2)C(C)C)[N+](=O)[O-])cc1OC` (stereo not given) registered a melting point of 171 to 173 °C.
The molecule `C=Cc1cc2ccccc2[nH]1` displayed a melting point of 91 °C.
Take `CN1C(=O)N2CCSC2(C)C1=O` (stereo not given): the melting point was in the range of 67 to 68 °C.
Consider `O=C(Cl)c1ccncc1`, for which the melting point is 160 °C.
With `CCC1(C)Cc2cc(OCC(=O)O)c(Cl)c(Cl)c2C1=O` (stereo not given), the melting point was 168 °C.
`COc1ccccc1CN(CC(=O)OC(C)(C)C)S(=O)(=O)c1ccc2c(Cl)cnc(Cl)c2c1` yielded a melting point of 106 to 108 °C.
For `CC#CCN(c1nc(-c2ccc(OC)cc2Cl)c(C)s1)C(COC)c1ccccc1` (stereo not given) the value was 70 °C.
The figure for `Cc1cn2ccccc2c1S(=O)(=O)c1ccc(O)cc1` is 177 °C; for `O=c1[nH]c2cc(Cl)cc(Cl)c2c(=O)n1Cc1cccc(I)c1` it is 299 to 302 °C; for `Nc1nc2c(c(N3CCNCC3)n1)SCCC2` it is 176 to 178 °C.
As to `Nc1cccnc1-c1ccc2[nH]nc(Nc3nccs3)c2c1`, the melting point fell in the range of 282 to 283 °C.
The molecule `CC(=O)c1cc2c(c(Br)c1O)CCCC2` had a melting point of 127 to 130 °C.
In turn, `Cc1cc(C)cc(N(CCCC(N)=O)Cc2ccc3nc(NCCCN4CCOCC4)n(Cc4ncccc4O)c3c2)c1` returned a melting point of 170 °C.
For `COc1cc(C=C2SC(N3CCCC3)=NC2=O)cc(-c2ccc(O)c(C34CC5CC(CC(C5)C3)C4)c2)c1O` the value was 353 to 355 °C.
As for `COC(=O)c1ccc(CN(CC2CCOCC2)S(=O)(=O)c2ccc(Cl)cc2)cc1`, the melting point lay within 115 to 117 °C.
In turn, `CCCCCCCCCCCCCCN=C=O` registered a melting point of 100 to 104 °C.
For `O=C(NCc1ccccc1)C1(CCCc2ccccc2)c2ccccc2-c2ccccc21` the value was 94 °C; for `CC(C)C1(C)N=C(c2nc3ccsc3cc2C(=O)O)NC1=O` (stereo not given), 242 to 244 °C; for `C=Cn1c(Cl)cc(Cl)c(O)c1=S`, 114 °C.
Molecule `Nc1ccccc1C(=O)C=Cc1ccncc1` came in with a melting point of 168 °C.
For `O=c1nc(-c2ccc([N+](=O)[O-])cc2)oc2ccccc12` the value was 249 to 251 °C.
The figure for `O=S1(=O)NCN(C2CCCCC2)c2cc(Cl)ccc21` is 178 to 180 °C.
On to `O=C(O)C(=O)c1ccc(OCCOc2ccccc2)cc1`, for which the melting point was 102 to 103 °C.
`O=C1CCN(Cc2ccc(C(F)(F)F)cc2)CC1C(c1ccc(F)cc1)c1ccc(F)cc1` (stereo not given) showed a melting point of 126 to 127 °C.
`CN(CC1CCCCC1)C(=O)c1ccc2nonc2c1` returned a melting point of 71 to 72 °C.
For `C=CCOc1ccc(S(=O)(=O)c2ccc(C)nc2Nc2c(C)cc(C)cc2C)cc1` the value was 138 to 140 °C; for `C[C@@H]([C@@H](CC1CCC(c2ccccc2)CC1)C(=O)N[C@H](C(=O)Nc1nccs1)C(C)(C)C)N(O)C=O` (stereo not given in full), 213 to 214 °C.
With `CCCC(c1ccncc1)n1ccc2ccccc21` (stereo not given), the melting point lay within 91 to 94 °C.
For `CCOC(=O)CN(C)CCCNC(=O)C=CC(=O)Nc1ccc2ncnc(Nc3cccc(Br)c3)c2c1` the value was 278 to 279 °C; for `COc1ccc(C(C)C)c(NC(=O)CN2CCN(CCCSc3nc4ccccc4o3)CC2)c1C(C)C`, 105 to 107 °C.
For `CCCCCCCCCCCCOc1c(OC)cc(N)c2nccc(C)c12` the value was 53 to 55 °C; for `O=C1COC(c2ccccc2)c2ccccc2N1` (stereo not given), 193 to 195 °C.
Molecule `COC(=O)c1cc(C(=O)CNC(C)(C)Cc2ccc3c(c2)OCO3)ccc1OCc1ccccc1` registered a melting point of 134 to 141 °C.
For `O=c1[nH]c2c(Cl)cccc2c(=O)n1CCCN1CC2CCC(C1)N2c1ccc(Cl)cc1` the value was 167 to 169 °C; for `COc1ccc2c(c1)c(Cc1cc(=O)n(-c3ccc(C)nn3)[nH]1)c(C)n2C(=O)c1ccc(Cl)cc1`, 122 to 124 °C; for `O=C1OC(O)c2c1cccc2[N+](=O)[O-]` (stereo not given), 153 to 156 °C.
The figure for `O=C(c1cccnc1-c1ccncc1)N1CCC(O)(Cc2ccccc2)CC1` is 150 °C.
In turn, `CCCCc1nc2cccc(C)c2c(=O)n1C1CCC(=O)NC1=O` (stereo not given) registered a melting point of 190 to 192 °C.
The figure for `CCCCc1nc(S(C)=O)c(C(=O)O)n1Cc1ccc(-c2ccccc2C(=O)O)cc1` (stereo not given) is 208 °C; for `O=[N+]([O-])c1cccc(CBr)c1CBr` it is 68 to 70 °C.
For `CCCNC(=O)C1(CCCc2ccccc2N2Cc3ccccc3C2=O)c2ccccc2-c2ccccc21` the value was 122 to 125 °C; for `Cc1ccc(S(=O)(=O)Nc2ccc(F)cc2[N+](=O)[O-])cc1`, 118 °C; for `CC(C)(C)OC(=O)Nc1ccc(C#Cc2ccccn2)cc1N`, 178 °C.
`CC(C)(C)OC(=O)Nc1ncc(F)s1` gave a melting point of 157 to 159 °C.
For `O=[N+]([O-])c1ccc(O)c(-c2cccs2)c1` the value was 130 °C; for `CCCCCCCc1ncc(CO)[nH]1`, 82 to 84 °C.
In turn, `N#CSCC(Cl)=C(Cl)CSC#N` came in with a melting point of 166 to 169 °C.
Turning to `CC(C)(C)OC(=O)NC1CCN(Cc2ccccc2)CC1`, the melting point lay in the range of 112 to 120 °C.
The molecule `CCCc1cnc(-c2ccc(F)cc2)nc1` registered a melting point of 52.7 °C.
For `COC(=O)c1ccc(C(=O)C#Cc2cc(-c3cccs3)c(OC)cc2OC)cc1` the value was 198 to 200 °C.
Turning to `CCCN(C(=O)n1ccnc1)c1ccccc1Cl`, the melting point was in the range of 75.5 to 76.5 °C.
For `O=C(/C=C/c1ccccc1F)N1CCN(C(=O)c2cc(C(F)(F)F)cc(C(F)(F)F)c2)[C@H](Cc2c[nH]c3ccccc23)C1` the value was 110 to 114 °C; for `N#CC1(c2ccc(OCc3ccc(F)cc3)c(OC3CCCC3)c2)CCC(=O)CC1`, 145 to 146 °C.
The figure for `CCCOC(=O)Nc1ccc(NCc2cc(Cl)cc(Cl)c2)cc1N` is 154 to 155 °C; for `Nc1nc2cc(Cl)c(Cl)cc2nc1-c1ccco1` it is 222 to 223 °C; for `CC(C)Oc1ncc(C#N)c(O)n1` it is 166 °C.
For `COc1cccc(-c2nc(N)nc(Nc3cccc(Br)c3)n2)c1` the value was 142 °C; for `C[C@](O)(CBr)C(=O)Nc1ccc([N+](=O)[O-])c(C(F)(F)F)c1`, 70 to 74 °C; for `N#Cc1ncccc1C(=O)OCC(Cl)(Cl)Cl`, 103 °C.
`N#CCc1c[nH]c2ccc(CS(=O)(=O)NCc3ccccc3C(N)=O)cc12` came in with a melting point of 202 to 206 °C.
The figure for `Oc1ccc2c(-c3cccnc3)coc2c1` is 167 to 168 °C.
For `O=C(c1cc(C(F)(F)F)cc(C(F)(F)F)c1)N1CCC2(CC1)C(=O)NCN2c1ccc(Cl)cc1`, the melting point fell in the range of 233 to 235 °C.
In the case of `CNC(=S)NS(=O)(=O)c1cc(CCNC(=O)c2cc(Cl)ccc2OC)ccc1OC`, the melting point is 190 to 193 °C.
In the case of `CC(C)(C)OC(=O)C1(N)C=CC(C(=O)O)C1` (stereo not given), the melting point was in the range of 126 to 127 °C.
The molecule `O=C(NCC1CCN(C[C@H]2COc3ccc(Cl)cc3O2)CC1)c1cccnc1` had a melting point of 172 to 174 °C.
For `COC(Cc1ccc(OCCc2nc(C(C)(C)C)oc2C)c2ccccc12)C(=O)O` (stereo not given), the melting point was 141 to 143 °C.
With `CC(c1oc2ccccc2c(=O)c1-c1cccc(F)c1)n1nc(-c2ccc(F)nc2)c2c(N)ncnc21` (stereo not given), the melting point fell in the range of 203 to 206 °C.
With `O=[N+]([O-])c1cccnc1Nc1ccc(O)cc1`, the melting point was in the range of 143 to 144 °C.
For `Cc1ccc2ccc(N3C(=O)c4ccccc4C3CC(=O)CCC(C)C)nc2n1` (stereo not given) the value was 155 °C.
For `CCc1cnc(CSc2cnc(NC(C)=O)s2)o1` the value was 147 to 148 °C; for `O=NN(CC(=O)O)C([PH](=O)Oc1ccccc1)[PH](=O)Oc1ccccc1` (stereo not given), 40 to 44 °C.
For `O=C(Cl)N1CCC1Oc1ccc(C(F)(F)F)cc1Cl` (stereo not given) the value was 86 to 88 °C; for `CN1CC=C(C2=C(C#N)C(c3cccc4nonc34)c3c[nH]nc3N2)CC1` (stereo not given), 218 °C.
Molecule `O=C1CN2Cc3ccccc3N=C2N1` displayed a melting point greater than 285 °C.
For `CCOC(=O)C(=CNC1CC1)C(=O)c1cc(F)c(F)cc1Cl` the value was 55 to 58 °C.
The molecule `CN(C)C[C@@H]1C(=O)N[C@H]1SC(c1ccccc1)(c1ccccc1)c1ccccc1` (relative stereo) yielded a melting point of 129 to 131 °C.
The figure for `CCCCCOc1ccc(C(=O)OC(C)C(C)OC(=O)c2ccc(OCCCCC)cc2)cc1` (stereo not given) is 52 °C; for `COc1c(C)cnc(Cn2cc(C#CCC(C)(C)O)c3c(Cl)nc(N)nc32)c1C` it is 163 to 165 °C; for `O=Cc1ccc(C(F)(F)F)cc1Oc1ccccc1` it is 57 to 59 °C.
For `CC(=O)C(C)c1ccc2c(c1)Cc1cccnc1O2` (stereo not given) the value was 136 °C; for `CCn1cc2c(C3CC3CNC(C)=O)cccc2n1` (stereo not given), 155 to 159 °C; for `CCCCCCCCCCCCn1nnc(CCC(=O)OC)n1`, 39 to 42 °C.
For `CCN(CC)C(=O)c1ccc2ccccc2c1-c1ccccc1C` the value was 150 to 152 °C; for `COc1ccc(-c2[nH]nc3c2C(=O)c2c(NC(=O)Cc4ccc(Cl)cc4)cccc2-3)cc1`, 238 °C; for `CC(C)(C)OC(=O)Nc1cc(N2CCOC2=O)c(-c2ccc(F)cc2)cc1[N+](=O)[O-]`, 201 °C.
In turn, `CCOC(=O)CNC(=O)Oc1ccc([N+](=O)[O-])c2cccnc12` had a melting point of 121 to 122 °C.
For `Cc1nc2c(N)nc3ccccc3c2n1CCOCCCc1ccccc1` the value was 130 to 131 °C; for `CCCCCCCCCCCCCOc1ccc(CNc2ccc(C(=O)O)cc2)cc1`, 110 to 113 °C.
`CC1=C(C#N)S(=O)c2ccc(C(F)(F)F)cc2N1` (stereo not given) had a melting point of 290 to 292 °C.
For `O=C(O)CCCC1Cc2ccc(F)cc2C1=O` (stereo not given) the value was 106 to 107 °C.
